Measured values taken from article PMC9412300, “In Vitro Evaluation and Mitigation of Niclosamide’s Liabilities as a COVID-19 Treatment” (Vaccines, 2022).
Where two headings read alike, the source gives them in different places.

What was measured:
H1437 cells = experiment: Cell viability (cell count per well) in H1437, 72 h compound exposure; format: cell-based, human; settings: H1437 infected with WA1, 72 h compound exposure
in vitro [1] = settings: African green monkey
[2] = Cell viability (cell count per well) in H1437, 72 h compound exposure; format: cell-based, human; settings: human
[3] = system: SARS-CoV-2 B.1.1.7 (alpha); experiment: microbe, parasite or virus in culture; format: cell-based
[4] = Cell viability in VeroE6, shortened 24 h infection assay; settings: African green monkey
[5] = system: SARS-CoV-2 WA1 (wildtype); experiment: microbe, parasite or virus in culture; format: cell-based
in vitro [6] = settings: African green monkey; remark: listed apart in the source
[7] = rats, oral administration at 5 mg/kg; cited from earlier work
[8] = parameters: method as in PMID 26848771, PMID 31040114; settings: cited from earlier work
[9] = system: SARS-CoV-2 B.1.351 (beta); experiment: microbe, parasite or virus in culture; format: cell-based; settings: Severe acute respiratory syndrome coronavirus 2, Vero C1008; read-out: IC50 against B.1.351, 24 h infection
[10] = parameters: method as in PMID 26848771, PMID 31040114; settings: cited from earlier work; remark: listed apart in the source
[11] = parameters: method as in PMID 33842908; settings: phase 1, 50 mg over 2.5 days inhalable/intranasal; cited from earlier work
SARS-CoV = settings: cited from earlier work
[12] = system: SARS-CoV-2 B.1.617.2 (delta); experiment: microbe, parasite or virus in culture; format: cell-based; settings: Severe acute respiratory syndrome coronavirus 2, Vero C1008; read-out: IC50 against B.1.617.2, 24 h infection
SARS-CoV-2 P.1 (gamma) = experiment: microbe, parasite or virus in culture; format: cell-based; settings: Severe acute respiratory syndrome coronavirus 2, Vero C1008; read-out: IC50 against P.1, 24 h infection
SARS-CoV-2 = system: SARS-CoV-2; parameters: method as in PMID 35138402; settings: phase 2, 2 g orally for 7 days; cited from earlier work
[13] = H1437 cells infected with SARS-CoV-2 WA1, H1437 infected with WA1, 72 h compound exposure, read-out: H1437 (WA1) CC50
[14] = Severe acute respiratory syndrome coronavirus 2, Vero C1008, 24 h; read-out: IC50 B.1.1.7 (protonophores)
[15] = Severe acute respiratory syndrome coronavirus 2, Vero C1008, 24 h; read-out: IC50 WA1 (protonophores)

Row | SMILES | CC50 (H1437 cells) | CC50 (VeroE6 cells) | also measured
1 | COC(=O)c1ccc(NC(=O)c2cc(C(F)(F)F)ccc2O)c(C)c1 [Compound 23] | > 20 µM | > 20 µM | –
2 | O=C(Nc1ccc(Br)cc1Cl)c1cc(Cl)ccc1O [Compound 34] | 3.62 µM | 5.47 µM | –
3 | Cc1cc(NC(=O)c2cc(C(C)(C)C)cc(C(C)(C)C)c2O)ccc1C(=O)O [Compound 27] | – | > 20 µM | –
4 | CC(C)(C)c1cccc(C(=O)Nc2ccc(NS(C)(=O)=O)cc2Cl)c1O [Compound 33] | > 20 µM | > 20 µM | –
5 | COC(=O)c1ccc(NC(=O)c2cc(C(C)(C)C)ccc2O)c(Cl)c1 [Compound 13] | > 20 µM | 14.6 µM | –
6 | O=C(Nc1ccccc1Cl)c1cc(Cl)ccc1O [Compound 5] | 18.6 µM | 8.44 µM | –
7 | COC(=O)c1ccc(NC(=O)c2cccc(C(C)(C)C)c2O)c(Cl)c1 [Compound 25] | > 20 µM | > 20 µM | –
8 | CC(C)(C)c1ccc(O)c(C(=O)Nc2ccc(C(=O)O)cc2F)c1 [Compound 15] | > 20 µM | > 20 µM | –
9 | Cc1cc(C(=O)O)ccc1NC(=O)c1cc(C(C)(C)C)ccc1O [Compound 16] | > 20 µM | > 20 µM | –
10 | O=C(Nc1ccc([N+](=O)[O-])cc1Cl)c1ccccc1O [Compound 2] | – | – | CC50 (in vitro [1]): 5.59 µM; CC50 at 72 h [2, 13]: 8.4 µM
11 | CC(C)(C)c1ccc(O)c(C(=O)Nc2ccc(C(=O)O)cc2Cl)c1 [Compound 14] | > 20 µM | 14.2 µM | –
12 | CC(C)(C)c1cccc(C(=O)Nc2ccc([N+](=O)[O-])cc2Cl)c1O [Compound 31] | 1.11 µM | 7.21 µM | –
13 | O=C(O)c1ccc(NC(=O)c2cc(Cl)ccc2O)c(Cl)c1 [Compound 8] | > 20 µM | > 20 µM | –
14 | N#Cc1ccc(NC(=O)c2cc(Cl)ccc2O)c(Cl)c1 [Compound 24] | – | – | CC50 (in vitro [1]): 4.72 µM; CC50 at 72 h [2, 13]: 0.88 µM
15 | N#CC(C#N)=NNc1ccc(OC(F)(F)F)cc1 [FCCP] | – | – | IC50 ([3]; Severe acute respiratory syndrome coronavirus 2, Vero C1008, 24 h, read-out: IC50 B.1.1.7 (protonophores)): 13 µM; CC50 at 25 h [4]: 43 µM; IC50 ([5]; Severe acute respiratory syndrome coronavirus 2, Vero C1008, 24 h, read-out: IC50 WA1 (protonophores)): 35 µM
16 | O=c1oc2ccccc2c(O)c1Cc1c(O)c2ccccc2oc1=O [Dicumarol, dicumarol] | – | – | IC50 [3, 14]: > 100 µM; CC50 at 25 h [4]: > 100 µM; IC50 [5, 15]: > 100 µM
17 | COC(=O)c1ccc(NC(=O)c2cc(Cl)ccc2O)c(Cl)c1 [Compound 7] | – | – | CC50 (in vitro [1]): 8.14 µM; CC50 at 72 h [2, 13]: > 20 µM
18 | CC(C)(C)c1ccc(O)c(C(=O)Nc2ccc([N+](=O)[O-])cc2Cl)c1 [Compound 11] | – | – | CC50 (in vitro [1]): 3.41 µM; CC50 at 72 h [2, 13]: 1.92 µM

Row | SMILES | CC50 (H1437 cells) | CC50 (VeroE6 cells) | also measured
19 | O=C(O)c1ccc(NC(=O)c2cc(C3CCCCC3)ccc2O)c(Cl)c1 [Compound 22] | > 20 µM | > 20 µM | –
20 | O=C(Nc1ccc([N+](=O)[O-])cc1Cl)c1cccc(Cl)c1 [Compound 9] | – | – | CC50 (in vitro [1]): > 20 µM; CC50 at 72 h [2, 13]: > 20 µM
21 | Cc1cc(NC(=O)c2cc(C(C)(C)C)cc(C(C)(C)C)c2O)ccc1C(=O)O [Compound 20] | > 20 µM | > 20 µM | –
22 | Cc1ccc(O)c(C(=O)Nc2ccc([N+](=O)[O-])cc2Cl)c1 [Compound 3] | 3.06 µM | 6.28 µM | –
23 | COC(=O)c1ccc(NC(=O)c2cc(C3CCCCC3)ccc2O)c(Cl)c1 [Compound 21] | > 20 µM | > 20 µM | –
24 | CC(C)(C)c1cc(C(=O)Nc2ccc(NS(C)(=O)=O)cc2Cl)c(O)c(C(C)(C)C)c1 [Compound 18] | > 20 µM | > 20 µM | –
25 | CC(C)(C)c1cccc(C(=O)Nc2ccc(N)cc2Cl)c1O [Compound 32] | > 20 µM | > 20 µM | –
26 | O=C(Nc1cc(Cl)cc(Cl)c1O)c1c(O)c(Cl)cc(Cl)c1Cl [Oxyclozanide, oxyclozanide] | – | – | IC50 [3, 14]: 20 µM; CC50 at 25 h [4]: > 100 µM; IC50 [5, 15]: 64 µM
27 | CC(C)(C)c1cc(C(=O)Nc2ccc(C(=O)O)cc2Cl)c(O)c(C(C)(C)C)c1 [Compound 26] | > 20 µM | > 20 µM | –
28 | CC(C)(C)c1cccc(C(=O)Nc2ccc(C(=O)O)cc2Cl)c1O [Compound 30] | > 20 µM | > 20 µM | –
29 | COc1ccc(O)c(C(=O)Nc2ccc([N+](=O)[O-])cc2Cl)c1 [Compound 12] | 7.53 µM | 10.3 µM | –
30 | Cc1ccc(NC(=O)c2cc(Cl)ccc2O)c(Cl)c1 [Compound 6] | 6.05 µM | 4.59 µM | –
31 | O=[N+]([O-])c1ccc(O)c([N+](=O)[O-])c1 [2,4 DNP] | – | – | IC50 [3, 14]: > 100 µM; CC50 (in vitro [6]): > 100 µM; IC50 [5, 15]: > 100 µM
32 | COc1ccc(O)c(C(=O)Nc2ccc([N+](=O)[O-])cc2Cl)c1 [Compound 4] | 8.94 µM | 10.1 µM | –
33 | O=C(Nc1ccc([N+](=O)[O-])cc1Cl)c1cc(Cl)ccc1O [Niclosamide] | – | – | maximal serum concentration (Cmax) [7]: 354 ± 152 ng/mL; CC50 (in vitro [1]): 1.05 µM; IC50 [3, 14]: 0.25 µM; IC50 ([3]; Severe acute respiratory syndrome coronavirus 2, Vero C1008; read-out: IC50 against B.1.1.7, 24 h infection): 0.298 µM; oral bioavailability [8]: < 10%; IC50 [9]: 440 ± 21 nM; water solubility [10]: poor; CC50 at 25 h ([4]; VeroE6 cells infected with SARS-CoV-2, CC50 (protonophores), VeroE6, 24 h infection conditions, starting concentration 100 μM): 66 µM; CC50 at 72 h ([2]; H1437 cells infected with SARS-CoV-2 B.1.1.7, H1437 infected with B.1.1.7, 72 h compound exposure, read-out: H1437 (B.1.1.7) CC50): 0.438 µM; CC50 at 72 h [2, 13]: 17.1 µM; IC50 [5, 15]: 3.5 µM; IC50 ([5]; Severe acute respiratory syndrome coronavirus 2, Vero C1008; read-out: IC50 against WA1, 24 h infection): 1.66 µM; participants with moderate lung irritation [11]: 59%; inhibition of SARS-CoV viral replication in vitro (SARS-CoV): low micromolar potency; IC50 [12]: 774 ± 58 nM; IC50 (SARS-CoV-2 P.1 (gamma)): 399 ± 34 nM; effect on the duration of the contagious period of SARS-CoV-2 (SARS-CoV-2): no statistically significant effect
34 | CC(C)(C)c1cc(C(=O)Nc2ccc(N)cc2Cl)c(O)c(C(C)(C)C)c1 [Compound 19] | > 20 µM | 17.6 µM | –
35 | COc1ccc(O)c(C(=O)Nc2ccc(C(=O)O)cc2C)c1 [Compound 28] | > 20 µM | > 20 µM | –
36 | COc1ccc(NC(=O)c2cc(Cl)ccc2O)c(Cl)c1 [Compound 10] | 18.9 µM | > 20 µM | –
